These results are taken from patent US20250282768A1 (Janssen Pharmaceutica NV, priority 2022, published 2025).

A value given as a limit tells only on which side of the number the result lay.

The test system of this assay is p-IKKa levels in L363 (NIK translocated multiple myeloma) cells. As to the kind of experiment: Assay 2: Effect of compounds on p-IKKa levels in L363 (NIK translocated multiple myeloma) cells. The note with it: Homo sapiens, L-363, 6 h, read-out: Assay 2 IC50 (nM), p-IKKa (Ser 176/180) in BAFF stimulated L363 cells with MG132, 6 h; average if tested more than once. Format: cell-based. In outline: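 L363 cells incubated overnight ± 250 ng/ml BAFF, then 6 h at 37 °C with compound (0.3% DMSO) ± 10 μM MG132. Lysates assayed for p-IKKa (Ser176/180) by AlphaLISA SureFire. IC50 from sigmoidal fit of % inhibition normalized to BAFF/MG132-stimulated and unstimulated controls.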
With `Cc1ccc(Nc2nccc(-c3cccc(-c4cc([C@]5(O)CCN(C)C5=O)on4)n3)n2)cn1` [Example 332, (R)-3-Hydroxy-1-methyl-3-(3-(6-(2-((6-methylpyridin-3-yl)amino)pyrimidin-4-yl)pyridin-2-yl)isoxazol-5-yl)pyrrolidin-2-one], the IC50 fell in the range of 50 to 500 nM.

In the case of `Cc1ccncc1Nc1nccc(-c2cccc(-c3cc([C@]4(O)CCN(C)C4=O)on3)n2)n1` [Example 333, (R)-3-Hydroxy-1-methyl-3-(3-(6-(2-((4-methylpyridin-3-yl)amino)pyrimidin-4-yl)pyridin-2-yl)isoxazol-5-yl)pyrrolidin-2-one], the IC50 lay within 50 to 500 nM. Consider `Cc1nccc(Nc2nccc(-c3cccc(-c4cc([C@]5(O)CCN(C)C5=O)on4)n3)n2)c1F` [Example 334, (R)-3-(3-(6-(2-((3-Fluoro-2-methylpyridin-4-yl)amino)pyrimidin-4-yl)pyridin-2-yl)isoxazol-5-yl)-3-hydroxy-1-methylpyrrolidin-2-one], for which the IC50 was < 50 nM. In the case of `CCn1cc(Nc2nccc(-c3cccc(-n4cc([C@]5(O)CCN(C)C5=O)nn4)n3)n2)cn1` [Example 335, (R)-3-(1-(6-(2-((1-Ethyl-1H-pyrazol-4-yl)amino)pyrimidin-4-yl)pyridin-2-yl)-1H-1,2,3-triazol-4-yl)-3-hydroxy-1-methylpyrrolidin-2-one], the IC50 was < 50 nM.

In the case of `CO[C@@H]1CCOC[C@H]1Nc1nccc(-c2cccc(-c3cc([C@]4(O)CCN(C)C4=O)on3)n2)n1` [Example 338, (R)-3-Hydroxy-3-(3-(6-(2-(((trans)-4-methoxytetrahydro-2H-pyran-3-yl)amino)pyrimidin-4-yl)pyridin-2-yl)isoxazol-5-yl)-1-methylpyrrolidin-2-one], the IC50 was > 500 nM.

For `CN1CC[C@@](O)(c2cc(-c3cccc(-c4ccnc(N[C@@H]5COC[C@@H]5F)n4)n3)no2)C1=O` [Example 339, (R)-3-(3-(6-(2-(((cis)-4-Fluorotetrahydrofuran-3-yl)amino)pyrimidin-4-yl)pyridin-2-yl)isoxazol-5-yl)-3-hydroxy-1-methylpyrrolidin-2-one], the IC50 lay in the range of 50 to 500 nM. As to `CN1CC[C@@](O)(c2cc(-c3cccc(-c4ccnc(NCC5CCOCC5)n4)n3)no2)C1=O` [Example 340, (R)-3-Hydroxy-1-methyl-3-(3-(6-(2-(((tetrahydro-2H-pyran-4-yl)methyl)amino)pyrimidin-4-yl)pyridin-2-yl)isoxazol-5-yl)pyrrolidin-2-one], the IC50 lay in the range of 50 to 500 nM.

Consider `CN1CC[C@@](O)(c2cc(-c3cccc(-c4ccnc(N[C@@H]5COC[C@H]5F)n4)n3)no2)C1=O` [Example 342, (R)-3-(3-(6-(2-(((trans)-4-Fluorotetrahydrofuran-3-yl)amino)pyrimidin-4-yl)pyridin-2-yl)isoxazol-5-yl)-3-hydroxy-1-methylpyrrolidin-2-one], for which the IC50 lay within 50 to 500 nM. In the case of `C[C@H](F)CCNc1nccc(-c2cccc(-c3cc([C@]4(O)CCN(C)C4=O)on3)n2)n1` [Example 344, (R)-3-(3-(6-(2-(((S)-3-Fluorobutyl)amino)pyrimidin-4-yl)pyridin-2-yl)isoxazol-5-yl)-3-hydroxy-1-methylpyrrolidin-2-one], the IC50 is 50 to 500 nM. In the case of `CN1CC[C@@](O)(c2cc(-c3cccc(-c4ccnc(NC[C@@H]5C[C@@H]5F)n4)n3)no2)C1=O` [Example 345, (R)-3-(3-(6-(2-((((cis)-2-Fluorocyclopropyl)methyl)amino)pyrimidin-4-yl)pyridin-2-yl)isoxazol-5-yl)-3-hydroxy-1-methylpyrrolidin-2-one], the IC50 was 50 to 500 nM.

Consider `C[C@@H](CF)Nc1nccc(-c2cccc(-c3cc([C@]4(O)CCN(C)C4=O)on3)n2)n1` [Example 348, (R)-3-(3-(6-(2-(((S)-1-Fluoropropan-2-yl)amino)pyrimidin-4-yl)pyridin-2-yl)isoxazol-5-yl)-3-hydroxy-1-methylpyrrolidin-2-one], for which the IC50 was in the range of 50 to 500 nM. In the case of `CN1CC[C@@](O)(c2cc(-c3cccc(-c4ccnc(N[C@H]5C[C@H](F)C5)n4)n3)no2)C1=O` [Example 349, (R)-3-(3-(6-(2-(((1r,3R)-3-Fluorocyclobutyl)amino)pyrimidin-4-yl)pyridin-2-yl)isoxazol-5-yl)-3-hydroxy-1-methylpyrrolidin-2-one], the IC50 was 50 to 500 nM.

On to `CN1CC[C@@](O)(c2cc(-c3cccc(-c4ccnc(NC5CC56CCOC6)n4)n3)no2)C1=O` (stereo partly drawn) [Example 350, (3R)-3-(3-(6-(2-((5-Oxaspiro[2.4]heptan-1-yl)amino)pyrimidin-4-yl)pyridin-2-yl)isoxazol-5-yl)-3-hydroxy-1-methylpyrrolidin-2-one], for which the IC50 is > 500 nM.

Regarding `CO[C@H]1C[C@@H](Nc2nccc(-c3cccc(-c4cc([C@]5(O)CCN(C)C5=O)on4)n3)n2)C1` [Example 351, (R)-3-Hydroxy-3-(3-(6-(2-(((1s,3S)-3-methoxycyclobutyl)amino)pyrimidin-4-yl)pyridin-2-yl)isoxazol-5-yl)-1-methylpyrrolidin-2-one], the IC50 lay in the range of 50 to 500 nM. To `CCO[C@@H]1COC[C@H]1Nc1nccc(-c2cccc(-c3cc([C@]4(O)CCN(C)C4=O)on3)n2)n1` [Example 352, (R)-3-(3-(6-(2-(((trans)-4-Ethoxytetrahydrofuran-3-yl)amino)pyrimidin-4-yl)pyridin-2-yl)isoxazol-5-yl)-3-hydroxy-1-methylpyrrolidin-2-one] belongs 50 to 500 nM; to `C[C@H](CF)Nc1nccc(-c2cccc(-c3cc([C@]4(O)CCN(C)C4=O)on3)n2)n1` [Example 353, (R)-3-(3-(6-(2-(((R)-1-Fluoropropan-2-yl)amino)pyrimidin-4-yl)pyridin-2-yl)isoxazol-5-yl)-3-hydroxy-1-methylpyrrolidin-2-one], 50 to 500 nM. `CO[C@@H]1COC[C@H]1Nc1nccc(-c2cccc(-c3cc([C@]4(O)CCN(C)C4=O)on3)n2)n1` [Example 354, (R)-3-Hydroxy-3-(3-(6-(2-(((3R,4S)-4-methoxytetrahydrofuran-3-yl)amino)pyrimidin-4-yl)pyridin-2-yl)isoxazol-5-yl)-1-methylpyrrolidin-2-one]: the IC50 lay in the range of 50 to 500 nM.

For `CO[C@H](C)CNc1nccc(-c2cccc(-c3cc([C@]4(O)CCN(C)C4=O)on3)n2)n1` [Example 356, (R)-3-Hydroxy-3-(3-(6-(2-(((R)-2-methoxypropyl)amino)pyrimidin-4-yl)pyridin-2-yl)isoxazol-5-yl)-1-methylpyrrolidin-2-one], the IC50 lay within 50 to 500 nM. To `CN1CC[C@@](O)(c2cc(-c3cccc(-c4ccnc(N[C@@H]5CCCC[C@@H]5O)n4)n3)no2)C1=O` [Example 357, (R)-3-Hydroxy-3-(3-(6-(2-(((1R,2S)-2-hydroxycyclohexyl)amino)pyrimidin-4-yl)pyridin-2-yl)isoxazol-5-yl)-1-methylpyrrolidin-2-one] belongs > 500 nM; to `CN1CC[C@@](O)(c2cc(-c3cccc(-c4ccnc(NC[C@H]5CCO5)n4)n3)no2)C1=O` [Example 358, (R)-3-Hydroxy-1-methyl-3-(3-(6-(2-((((R)-oxetan-2-yl)methyl)amino)pyrimidin-4-yl)pyridin-2-yl)isoxazol-5-yl)pyrrolidin-2-one], > 500 nM. For the compound `CN1CC[C@@](O)(c2cc(-c3cccc(-c4ccnc(NCCC(F)F)n4)n3)no2)C1=O` [Example 359, (R)-3-(3-(6-(2-((3,3-Difluoropropyl)amino)pyrimidin-4-yl)pyridin-2-yl)isoxazol-5-yl)-3-hydroxy-1-methylpyrrolidin-2-one], the IC50 was 50 to 500 nM. For the compound `CN1CC[C@@](O)(c2cc(-c3cccc(-c4ccnc(NC[C@@H]5CCO5)n4)n3)no2)C1=O` [Example 360, (R)-3-Hydroxy-1-methyl-3-(3-(6-(2-((((S)-oxetan-2-yl)methyl)amino)pyrimidin-4-yl)pyridin-2-yl)isoxazol-5-yl)pyrrolidin-2-one], the IC50 was > 500 nM.

In the case of `CN1CC[C@@](O)(c2cc(-c3cccc(-c4ccnc(N[C@@H]5CC6CCC5O6)n4)n3)no2)C1=O` (stereo partly drawn) [Example 361, (3R)-3-(3-(6-(2-(((cis)-7-Oxabicyclo[2.2.1]heptan-2-yl)amino)pyrimidin-4-yl)pyridin-2-yl)isoxazol-5-yl)-3-hydroxy-1-methylpyrrolidin-2-one], the IC50 was in the range of 50 to 500 nM. For the compound `CO[C@@H](C)CNc1nccc(-c2cccc(-c3cc([C@]4(O)CCN(C)C4=O)on3)n2)n1` [Example 362, (R)-3-Hydroxy-3-(3-(6-(2-(((S)-2-methoxypropyl)amino)pyrimidin-4-yl)pyridin-2-yl)isoxazol-5-yl)-1-methylpyrrolidin-2-one], the IC50 was 50 to 500 nM. The figure for `C[C@@H](Nc1nccc(-c2cccc(-c3cc([C@]4(O)CCN(C)C4=O)on3)n2)n1)c1ccccn1` [Example 363, (R)-3-Hydroxy-1-methyl-3-(3-(6-(2-(((R)-1-(pyridin-2-yl)ethyl)amino)pyrimidin-4-yl)pyridin-2-yl)isoxazol-5-yl)pyrrolidin-2-one] is 50 to 500 nM. As for `CN1CC[C@@](O)(c2cc(-c3cccc(-c4ccnc(NCCF)n4)n3)no2)C1=O` [Example 364, (R)-3-(3-(6-(2-((2-Fluoroethyl)amino)pyrimidin-4-yl)pyridin-2-yl)isoxazol-5-yl)-3-hydroxy-1-methylpyrrolidin-2-one], the IC50 was in the range of 50 to 500 nM. On to `CN1CC[C@@](O)(c2cc(-c3cccc(-c4ccnc(NC5CCN(CC(F)F)C5)n4)n3)no2)C1=O` (stereo partly drawn) [Example 365, (3R)-3-(3-(6-(2-((1-(2,2-Difluoroethyl)pyrrolidin-3-yl)amino)pyrimidin-4-yl)pyridin-2-yl)isoxazol-5-yl)-3-hydroxy-1-methylpyrrolidin-2-one], for which the IC50 is > 500 nM. Regarding `COCC1CC(Nc2nccc(-c3cccc(-c4cc([C@]5(O)CCN(C)C5=O)on4)n3)n2)CO1` (stereo partly drawn) [Example 366, (3R)-3-Hydroxy-3-(3-(6-(2-((5-(methoxymethyl)tetrahydrofuran-3-yl)amino)pyrimidin-4-yl)pyridin-2-yl)isoxazol-5-yl)-1-methylpyrrolidin-2-one], the IC50 is 50 to 500 nM.
